{"source": "patent US6897316B2", "about": "“Substituted 2-phenyl-4-quinolone-3-carboxylic acid compounds and their use as antitumor agents” (China Medical University, priority 2003, dated 2005)", "key": {"[1]": {"system": "epidermoid carcinoma of the nasopharynx (KB) cell line", "test": "Activity against HTCL replication, KB", "type": "cell-based, human", "settings": "mean ED50", "description": "Compounds were assayed for in vitro cytotoxicity in a panel of human tumor cell lines at the School of Pharmacy, University of North Carolina at Chapel Hill, according to procedures described previously [Lee, K. H., Lin, Y. M., Wu, T. S., Zhang, D. C., Yamagishi, T., Hayashi, T., Hall, I. H., Chang, J. J., Wu, R. Y., Yang, T. H. The cytotoxic principles of Prunella vulgaris, Psychotria serpens, and Hyptis capitata: Ursolic acid and related derivatives. Planta Med. 1988, 54, 308-11; Boyd, M. R. Status of the National Cancer Institute preclinical antitumor drug discovery screen: implications for selection of new agents for clinical trial. Devita, V. T., Jr. Hellman, S., Rosenberg, S. A., Eds, J. B. Cancer: Principles and Practice of Oncology Update, 1989, 3: pp1-12, Lippincoft: Philadephia; Monks, A., Scudiero, D., Skehan, P., Shoemaker, R., Paull, K., Vistica, D., Hose, C., Langley, J., Cronise, P., Vaigro-Wolff, A., Gray-Goodrich, M., Campbell, H., Mayo, J., Boyd, M. Feasibility of a high-flux anticancer drug screen using a diverse panel of cultured human tumor cell lines. J. Natl. Cancer Inst. 1991, 83, 757-66.] […]"}, "[2]": {"system": "panel of 39 human cancer cell lines", "test": "Growth inhibition against human cancer cell line panel (Sulforhodamine B, 48 h)", "type": "cell-based", "description": "Compound IX-8 was evaluated growth inhibition activities against a panel of 39 human cancer cell lines including Human breast cancer MDA-MB-231 and the following human cancer cell lines were generously distributed by the National Cancer Institute (Frederick, Md.): lung cancer, NCI-H23, NCI-H226, NCI-H522, NCI-H460, A-549, DMS273 and DMS114; colon cancer, HGC-2998, KM-12, HT-29, HCT-15, and HCT-116; ovarian cancer, OVCAR-3, OVCAR-4, OVCAR-5, OVCAR-8, and SKOV-3; breast cancer, MCF-7; renal cancer, RXF-631L and ACHN; melanoma, LOX-IMVI; brain tumor, U251, SF-295, SF-539, SF-268, SNB-75, and SNB-78, and prostate cancer, DU-145 and PC-3. […]\nThe details of measuring cell growth inhibition are described elsewhere [Monks, A., Scudiero, D., Skehan, P., Shoemaker, R., Paull, K., Vistica, D., Hose, C., Langley, J., Cronise, P., Vaigro-Wolff, A., Gray-Goodrich, M., Campbell, H., Mayo, J., Boyd, M. Feasibility of a high-flux anticancer drug screen using a diverse panel of cultured human tumor cell lines. […] Then, the cell growth was determined according to the Sulforhodamine B assay, described by Skehan et al [Skehan, P., Storeng, R., Scudiero, D., Monks, A., McMahon, J., Vistica, D., Warren, J. T., Bokesch, H., Kenney, S., Boyd, M. R. New calorimetric cytotoxicity assay for anticancer-drug screening. […]"}}, "data": [{"smiles": "COc1ccc2[nH]c(-c3cccc(F)c3)c(C(=O)O)c(=O)c2c1", "note": "[IX-8, 3′-Fluoro-6-methoxy-2-phenyl-4-quinolone-3-carboxylic acid]", "values": [{"measurement": "ED50 KB", "setting": "[1]", "result": 0.13, "unit": "µg/mL"}, {"measurement": "activity against cancer cell line panel in words", "setting": "[2]; cell line panel", "result": "active against most cancer cell lines"}, {"measurement": "MG-MID (mean growth midpoint) of log GI50", "setting": "[2]; mean over cell line panel, 10^−4 to 10^−8 M", "result": "−6.22", "unit": "M"}]}]}
